From patent US10668055B2, “Cancer treatment using combinations of ERK and RAF inhibitors” (BIOMED VALLEY DISCOVERIES, INC., priority 2013, dated 2020)
Where two headings read alike, the source gives them in different places.

Columns and labels:
A375 = assay: Single agent proliferation assay (CellTiter-Glo, 72 h); assay type: cell-based, human; settings: Homo sapiens, A-375; A375, 72 h
Experimental: (§1) Cells were seeded in 96-well plates at the densities and media conditions indicated in Table 17 and allowed to adhere overnight prior to addition of compound or vehicle control. Compounds were prepared from DMSO stocks to give the desired final concentrations. The final DMSO concentration was constant at 0.1%. Test compounds were incubated with the cells for 72 h at 37° C., 5% CO2 in a humidified atmosphere. CellTiter-Glo® reagent (Promega, Madison, Wis.) was added according to manufacturer's instructions and luminescence detected using the BMG FLUOstar plate reader (BMG Labtech, Ortenberg, Germany). The average media only background value was deducted and the data analysed using a 4-parameter logistic equation in GraphPad Prism (GraphPad Software, La Jolla, Calif.).

A375 cells [1] = assay: Combination study, 10×8 dose matrix, Alamar Blue / CellTiter-Glo, Bliss additivity model; assay type: cell-based, human; settings: single agent
Experimental: For combination studies, A375 cells (ATCC) were seeded into triplicate 96-well plates at a cell density of 3000 cells/well in DMEM plus 10% FBS and allowed to adhere overnight prior to addition of test compound or vehicle control. Combinations were tested using a 10×8 dose matrix with a final DMSO concentration of 0.2%. A 96 hour assay incubation period followed, with subsequent addition of Alamar Blue 10% (v/v) and 4 hours incubation prior to reading on a fluorescent plate reader. After reading Alamar Blue, the medium/Alamar Blue mix was flicked off and 100 μl of CellTiter-Glo/PBS (1:1) added and the plates processed as per the manufacturer's instructions (Promega). Media only background values were subtracted before the data was analysed. The Bliss additivity model was then applied.
In brief, predicted fractional inhibition values for combined inhibition were calculated using the equation Cbliss=A+B−(A×B) where A and B are the fractional inhibitions obtained by drug A alone or drug B alone at specific concentrations. Cbliss is the fractional inhibition that would be expected if the combination of the two drugs were exactly additive. Cbliss values are subtracted from the experimentally observed fractional inhibition values to give an ‘excess over Bliss’ value. Excess over Bliss values greater than 0 indicate synergy, whereas values less than 0 indicate antagonism. […]

G-361 = assay: Single agent proliferation assay (CellTiter-Glo, 72 h); assay type: cell-based; settings: Homo sapiens, G-361, 72 h
Experimental: as §1

[2] = A375 in vivo study: toxicity (body weight, deaths, side effects)
Source text: Animals were weighed daily on Days 1-5, then twice per week until completion of the study. […] Individual body weight loss was monitored as per protocol, and any animal that exceeded the limits for acceptable body weight loss was euthanized. Group mean body weight loss also was monitored as per protocol. Dosing was to be suspended in any group that exceeded the limits for acceptable mean body weight loss. If mean body weight recovered, then dosing was to be resumed in that group, but at a lower dosage or less frequent dosing schedule.
Acceptable toxicity for the maximum tolerated dose (MTD) was defined as a group mean body-weight loss of less than 20% during the study and not more than 10% treatment-related (TR) deaths. […] A death was classified as non-treatment-related (NTR) if there was no evidence that death was related to treatment side effects. NTR deaths were further characterized based on cause of death. A death was classified as NTRa if it resulted from an accident or human error. […] A death was classified as NTRu if the cause of death was unknown and there was no available evidence of death related to treatment side effects, metastasis, accident or human error, although death due to treatment side effects cannot be excluded.

[3] = test system: A375 human melanoma xenograft; assay: A375 in vivo study: tumor growth delay and regression responses; parameters: species or system athymic nude mice
Experimental: Female athymic nude mice (Crl:NU(Ncr)-Foxn/^nu, Charles River) were nine weeks old with a body weight (BW) range of 17.5 to 26.2 grams on Day 1 of the study. The animals were fed ad libitum water (reverse osmosis, 1 ppm CI), and NIH 31 Modified and Irradiated Lab Diet® consisting of 18.0% crude protein, 5.0% crude fat, and 5.0% crude fiber. The mice were housed on irradiated Enrich-o'cobs™ Laboratory Animal Bedding in static microisolators on a 12-hour light cycle at 20-22° C. (68-72° F.) and 40-60% humidity. The recommendations of the Guide for Care and Use of Laboratory Animals with respect to restraint, husbandry, surgical procedures, feed and fluid regulation, and veterinary care were complied with.
Tumor xenografts were initiated with A375 human melanomas by serial subcutaneous transplantation in athymic nude mice. On the day of tumor implant, each test mouse received a 1 mm^3 A375 fragment implanted subcutaneously in the right flank, and tumor growth was monitored as the average size approached the target range of 80 to 120 mm^3. Tumors were measured in two dimensions using calipers, and volume was calculated using the formula: […]
Ten days after tumor implantation, designated as Day 1 of the study, the animals were sorted into nine groups (Groups 1-9) each consisting of fifteen mice and one group (Group 10) consisting of ten mice. Individual tumor volumes ranged from 75 to 144 mm^3 and group mean tumor volumes were 110 or 111 mm^3.
On Day 1 of the study, mice were sorted into nine groups (Group 1-9) each consisting of fifteen mice and one group (Group 10) consisting of ten mice, and dosing was initiated according to the treatment plan summarized in Table 15 below. Each dose was given by oral gavage (p.o.) in a dosing volume of 10 mL/kg (0.2 mL per 20 grams of body weight), scaled to the body weight of each individual animal. The vehicle and dabrafenib doses were to be given once daily until study end (qd to end), whereas the BVD-523 doses were to be given twice daily until study end (bid to end). For bid dosing, dosing was initiated in the afternoon on Day 1, so that one dose was given on the first day (“first day 1 dose”).
Due to the striking response to combination treatment, dosing in Groups 2-5 was stopped on Day 20 in order to monitor tumor re-growth. Dosing was to be re-initiated in a group when the mean tumor burden reached 1000 mm^3. By Day 42, the 1000 mm^3 mean tumor burden had not been reached in any of the combination groups. Dosing was re-initiated to permit post-final dose serum and tumor sampling for pharmacokinetic analyses. […] The final dosing schedules are shown below in Table 16.
Tumors were measured using calipers twice per week, and each animal was euthanized when its tumor reached the pre-determined tumor volume endpoint of 2000 mm^3 or on the final day, whichever came first. Animals that exited the study for tumor volume endpoint were documented as euthanized for tumor progression (TP), with the date of euthanasia. The time to endpoint (TTE) for analysis was calculated for each mouse by the following equation:
[formula] where TTE is expressed in days, endpoint volume is expressed in mm^3, b is the intercept, and m is the slope of the line obtained by linear regression of a log-transformed tumor growth data set. The data set consists of the first observation that exceeded the endpoint volume used in analysis and the three consecutive observations that immediately preceded the attainment of this endpoint volume. The calculated TTE is usually less than the TP date, the day on which the animal was euthanized for tumor size. […] Any animal classified as having died from NTR (non-treatment-related) causes due to accident (NTRa) or due to unknown etiology (NTRu) were excluded from TTE calculations (and all further analyses). Animals classified as TR (treatment-related) deaths or NTRm (non-treatment-related death due to metastasis) were assigned a TTE value equal to the day of death. […]

[4] = test system: melanoma xenograft model derived from biopsies obtained from a patient; assay: Melanoma xenograft model derived from patient biopsies after progression on vemurafenib; assay type: in vivo; settings: model with acquired cross-resistance
A375 cells [5] = assay: Proliferation assay (Alamar Blue, 96 hours) on parental and dose-escalated A375 cell lines; settings: Homo sapiens
Experimental: Cancer cell lines were maintained in cell culture under standard media and serum conditions. For dose escalation studies, A375 cells were split, grown to about 40-60% confluence, and then treated with the initial dose of the specified drug.
Proliferation assays were used to track changes in sensitivity to the escalated agent(s) at appropriate time intervals (e.g. each month, although the timing is dependent on adequate cell numbers being available). For proliferation assays, cells were seeded in 96-well plates at 3000 cells per well in drug-free DMEM medium containing 10% FBS and allowed to adhere overnight prior to addition of compound or vehicle control. […] Test compounds were incubated with the cells for 96 hours at 37° C. and 5% CO2 in a humidified atmosphere. Alamar Blue 10% (v/v) was then added and incubated for 4 hours and fluorescent product was detected using a BMG FLUOstar plate reader. The average media only background value was deducted and the data analyzed using a 4-parameter logistic equation in GraphPad Prism. Paclitaxel was used as a positive control.

SMILES: CC(C)(C)c1nc(-c2cccc(NS(=O)(=O)c3c(F)cccc3F)c2F)c(-c2ccnc(N)n2)s1 [Dabrafenib]
- IC50 (A375): ~0.7 nM
- Sensitivity of A375 cells (BRAF V600E) (A375 cells [1]): sensitive
- IC50 (G-361): ~1.4 nM
- Deaths NTR ([2]; G6: 50 mg/kg po qd to end): 0
- Deaths TR ([2]; G6: 50 mg/kg po qd to end): 0
- Deaths NTR ([2]; G7: 100 mg/kg po qd to end): 0
- Deaths TR ([2]; G7: 100 mg/kg po qd to end): 0
- Signs of treatment-related side effects ([2]; mono- and combination therapy groups): no noteworthy signs of treatment-related side effects
- % TGD ([3]; G6: 50 mg/kg po qd to end): 75%
- CR (complete regressions) ([3]; G6: 50 mg/kg po qd to end): 0
- Median TTE ([3]; G6: 50 mg/kg po qd to end): 16.1 days
- PR (partial regressions) ([3]; G6: 50 mg/kg po qd to end): 0
- T-C ([3]; G6: 50 mg/kg po qd to end): 6.9 days
- TFS (tumor free survivors) ([3]; G6: 50 mg/kg po qd to end): 0
- Tumors that attained the 2000 mm^3 endpoint volume ([3]; G6: 50 mg/kg po qd to end): All
- % TGD ([3]; G7: 100 mg/kg po qd to end): 210%
- CR (complete regressions) ([3]; G7: 100 mg/kg po qd to end): 0
- Median TTE ([3]; G7: 100 mg/kg po qd to end): 28.5 days
- PR (partial regressions) ([3]; G7: 100 mg/kg po qd to end): 1
- T-C ([3]; G7: 100 mg/kg po qd to end): 19.3 days
- TFS (tumor free survivors) ([3]; G7: 100 mg/kg po qd to end): 0
- Tumors that attained the 2000 mm^3 endpoint volume ([3]; G7: 100 mg/kg po qd to end): 13/15
- MTV (n) D45 ([3]; G7: 100 mg/kg po qd to end, Day 45): 282 (2) imd
- PR (partial regressions) ([3]; G7: 100 mg/kg po qd to end, listed as dabrafenib): One and one
- MTV ([3]; G7: 100 mg/kg po qd to end, two tumors remaining on Day 45): 282 mm^3
- Anti-tumor response [4]: insensitive

SMILES: CC(=O)Nc1cccc(-n2c(=O)n(C3CC3)c(=O)c3c(Nc4ccc(I)cc4F)n(C)c(=O)c(C)c32)c1 [Trametinib]
- IC50 (A375 cells [5]; A-375, read-out: Relative IC50, Month 1, Par = Parental cell line): 0.5 nM
- IC50 (A375 cells [5]; A-375, read-out: Relative IC50, Month 1, cell line BVD-523 (0.48 μM)): 0.7 nM
- IC50 (A375 cells [5]; A-375, read-out: Relative IC50, Month 1, cell line Dab (15 nM Dab)): 2.5 nM
- IC50 (A375 cells [5]; A-375, read-out: Relative IC50, Month 1, cell line Dab/523 (7.5 nM/0.24 μM)): 3.1 nM
- IC50 (A375 cells [5]; A-375, read-out: Relative IC50, Month 1, cell line Tram (growing in 2 nM Tram)): 2.2 nM
- IC50 (A375 cells [5]; A-375, read-out: Relative IC50, Month 2, Par = Parental cell line): 0.4 nM
- IC50 (A375 cells [5]; A-375, read-out: Relative IC50, Month 2, cell line BVD-523 (0.8 μM)): 24.3 nM
- IC50 (A375 cells [5]; A-375, read-out: Relative IC50, Month 2, cell line Dab (127 nM Dab)): 1.1 nM
- IC50 (A375 cells [5]; A-375, read-out: Relative IC50, Month 2, cell line Dab/523 (12.5 nM/0.4 μM)): 6.2 nM
- IC50 (A375 cells [5]; A-375, read-out: Relative IC50, Month 2, cell line Tra (8 nM Tram)): 0.7 nM
- IC50 (A375 cells [5]; A-375, read-out: Relative IC50, Month 3, Par = Parental cell line): 0.2 nM
- IC50 (A375 cells [5]; A-375, read-out: Relative IC50, Month 3, cell line Dab (3.2 μM Dab)): 0.4 nM

SMILES: Cn1nnc2c(C(N)=O)ncn2c1=O [Temozolomide]
- Deaths NTR ([2]; G10: 150 mg/kg po qd × 5): 0
- Deaths TR ([2]; G10: 150 mg/kg po qd × 5): 0
- Mean BW Nadir ([2]; G10: 150 mg/kg po qd × 5, nadir on Day 5): −1.6% Day 5
- % TGD ([3]; G10: 150 mg/kg po qd × 5): 14%
- CR (complete regressions) ([3]; G10: 150 mg/kg po qd × 5): 0
- Median TTE ([3]; G10: 150 mg/kg po qd × 5): 10.5 days
- PR (partial regressions) ([3]; G10: 150 mg/kg po qd × 5): 0
- T-C ([3]; G10: 150 mg/kg po qd × 5): 1.3 days
- TFS (tumor free survivors) ([3]; G10: 150 mg/kg po qd × 5): 0
